According to patent US5620958A, “Bradykinin antagonists” (Coretech, Inc., priority 1994, dated 1997):
Where two headings read alike, the source gives them in different places. Peptide text beside a SMILES is read from it.

Key:
NK2 receptor = target: T1, NK2 receptor (Oryctolagus cuniculus, UniProt P79218); assay: rabbit pulmonary artery, reduction of neurokinin A contraction; format: cell-based; conditions: Table R; negative log of molar concentration reducing sustained neurokinin A contraction by 50%; read-out: NK2 Rabbit Pulm Art log (converted)
T1 construct: reduce a sustained contractile response produced by neurokinin A by 50%; from tissue; host or cells: contractile tissue preparation (rabbit pulmonary artery per the earlier reading)
T1 sequence (P79218 1-384): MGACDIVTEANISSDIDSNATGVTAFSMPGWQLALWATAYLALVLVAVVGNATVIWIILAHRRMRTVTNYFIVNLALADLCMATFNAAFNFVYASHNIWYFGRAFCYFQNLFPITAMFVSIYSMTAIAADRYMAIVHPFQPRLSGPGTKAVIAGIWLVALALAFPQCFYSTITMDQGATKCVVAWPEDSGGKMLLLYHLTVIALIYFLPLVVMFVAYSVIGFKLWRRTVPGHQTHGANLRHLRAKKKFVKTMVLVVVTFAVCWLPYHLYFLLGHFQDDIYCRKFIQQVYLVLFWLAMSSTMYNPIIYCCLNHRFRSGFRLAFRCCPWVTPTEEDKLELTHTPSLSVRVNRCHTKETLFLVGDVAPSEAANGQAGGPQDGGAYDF
Method: The heterodimers thus obtained were tested for activity as heretofore described, the results being shown in Table R. In this Table -log [M] represents the negative log of the molar concentration of the antagonist necessary to reduce a sustained contractile response produced by neurokinin A by 50%.

BK2 receptor [1] = target: T2, BK2 receptor (Rattus norvegicus, UniProt P25023); assay: cell-based
T2 sequence (P25023 1-396): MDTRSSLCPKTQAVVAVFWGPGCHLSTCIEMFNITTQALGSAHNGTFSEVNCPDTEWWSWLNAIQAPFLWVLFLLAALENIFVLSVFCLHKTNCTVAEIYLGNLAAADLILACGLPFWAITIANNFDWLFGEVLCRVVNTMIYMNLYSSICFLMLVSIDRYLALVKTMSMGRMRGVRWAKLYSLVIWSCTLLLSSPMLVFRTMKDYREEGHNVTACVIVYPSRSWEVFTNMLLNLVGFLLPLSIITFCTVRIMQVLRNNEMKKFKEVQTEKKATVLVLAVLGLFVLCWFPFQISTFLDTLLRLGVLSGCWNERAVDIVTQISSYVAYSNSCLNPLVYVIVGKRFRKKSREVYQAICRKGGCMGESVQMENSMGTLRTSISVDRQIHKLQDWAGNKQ

BK2 receptor [2] = target: T3, BK2 receptor (Cavia porcellus, UniProt O70526); assay: guinea-pig ileum (GPI) in vitro, antagonism of BK; format: cell-based; conditions: Table E
T3 construct: tested for activity on guinea pig ileum in vitro on the standard tissue bath/strain gauge system; from tissue; host or cells: guinea pig ileum
T3 sequence (O70526 1-372): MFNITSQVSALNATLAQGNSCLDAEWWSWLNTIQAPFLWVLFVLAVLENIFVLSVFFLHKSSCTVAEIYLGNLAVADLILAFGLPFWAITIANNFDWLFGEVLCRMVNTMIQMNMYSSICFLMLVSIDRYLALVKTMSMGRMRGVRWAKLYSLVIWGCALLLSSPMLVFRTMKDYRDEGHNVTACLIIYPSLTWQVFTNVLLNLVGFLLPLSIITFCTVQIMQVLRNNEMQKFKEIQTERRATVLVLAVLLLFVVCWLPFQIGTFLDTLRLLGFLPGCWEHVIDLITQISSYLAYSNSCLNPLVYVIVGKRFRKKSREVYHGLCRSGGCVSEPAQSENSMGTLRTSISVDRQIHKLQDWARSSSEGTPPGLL
Outline: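 Isolated guinea-pig ileum in tissue bath with strain-gauge recording; antagonism of bradykinin contractions. Potency expressed as pA2 (Schild method: negative log molar antagonist concentration causing two-fold agonist potency shift); percentage recovery also determined.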

BK1 receptor = target: T4, BK1 receptor (Oryctolagus cuniculus, UniProt P48748); assay: rabbit aorta in vitro, reversal of des-Arg^9 -BK contraction; format: cell-based; conditions: Table G; negative log of molar concentration causing 50% reversal of 10^-7 M des-Arg^9 -BK contraction
T4 construct: when administered to an intact animal; from tissue; host or cells: whole rabbit (systemic arterial blood pressure), LPS-pretreated
T4 sequence (P48748 1-352): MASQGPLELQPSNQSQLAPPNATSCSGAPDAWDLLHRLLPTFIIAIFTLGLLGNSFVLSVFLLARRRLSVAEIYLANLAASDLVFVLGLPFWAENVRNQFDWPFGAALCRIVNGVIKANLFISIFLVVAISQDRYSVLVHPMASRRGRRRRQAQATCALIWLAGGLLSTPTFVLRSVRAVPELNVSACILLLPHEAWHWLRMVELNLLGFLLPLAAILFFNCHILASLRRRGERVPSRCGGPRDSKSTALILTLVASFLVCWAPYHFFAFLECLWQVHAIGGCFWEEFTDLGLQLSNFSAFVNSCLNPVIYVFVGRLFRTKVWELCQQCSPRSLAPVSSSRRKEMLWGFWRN

BK2 receptor [3] = target: T2, BK2 receptor; conditions: Table C, rat uterus; P.A. = partial antagonist

SMILES	IC50 (NK2 receptor)	Kb (BK2 receptor [1])	GPI pA2 (BK2 receptor [2])	BK1 RABBIT AORTA IC50 (BK1 receptor)	pA2 DIMER (BK2 receptor [3])	Kb (BK2 receptor [1]; BK2 RAT UTERUS pA2, Table G)	Kb (BK2 receptor [1]; pA2 (UTERUS), Table D, effect of linker length)
CC(C)C[C@H](NC(=O)[C@@H](Cc1ccccc1)NC(=O)[C@H](CSC1CC(=O)N(CCCCCCN2C(=O)CC(SC[C@H](NC(=O)[C@@H](Cc3c[nH]c4ccccc34)NC(=O)[C@H](Cc3ccc(O)cc3)NC(=O)[C@@H](N)CC(=O)O)C(=O)N[C@H](Cc3c[nH]c4ccccc34)C(=O)N[C@H](Cc3c[nH]c4ccccc34)C(=O)N[C@@H](CCCNC(=N)N)C(N)=O)C2=O)C1=O)NC(=O)[C@H](Cc1ccccc1)NC(=O)CNC(=O)[C@@H]1C[C@@H](O)CN1C(=O)[C@@H]1CCCN1C(=O)[C@H](CCCNC(=N)N)NC(=O)[C@H](N)CCCNC(=N)N)C(=O)N[C@@H](CCCNC(=N)N)C(=O)O (stereo partly drawn) [CP-0414] (HELM PEPTIDE1{[dR].R.P.[Hyp].G.F.C.[dF].L.R}|PEPTIDE2{D.Y.[dW].C.[dW].[dW].R.[am]}|CHEM1{[O=C1CC([*:1])C(=O)N1CCCCCCN1C(=O)CC([*:2])C1=O]}$PEPTIDE1,CHEM1,7:R3-1:R1|PEPTIDE2,CHEM1,4:R3-1:R2$$$V2.0; N-terminus assumed)	6310 nM	15.8 nM	–	–	–	–	–
CC(C)C[C@H](NC(=O)[C@@H](Cc1ccccc1)NC(=O)[C@H](CSC1CC(=O)N(CCCCCCN2C(=O)CC(SC[C@H](NC(=O)[C@@H](Cc3c[nH]c4ccccc34)NC(=O)[C@@H](NC(=O)[C@@H](Cc3c[nH]c4ccccc34)NC(=O)[C@H](Cc3ccc(O)cc3)NC(=O)[C@@H](N)CC(=O)O)C(C)C)C(=O)N[C@@H](CCCNC(=N)N)C(N)=O)C2=O)C1=O)NC(=O)[C@H](Cc1ccccc1)NC(=O)CNC(=O)[C@@H]1C[C@@H](O)CN1C(=O)[C@@H]1CCCN1C(=O)[C@H](CCCNC(=N)N)NC(=O)[C@H](N)CCCNC(=N)N)C(=O)N[C@@H](CCCNC(=N)N)C(=O)O (stereo partly drawn) [CP-0416] (HELM PEPTIDE1{[dR].R.P.[Hyp].G.F.C.[dF].L.R}|PEPTIDE2{D.Y.[dW].V.[dW].C.R.[am]}|CHEM1{[O=C1CC([*:1])C(=O)N1CCCCCCN1C(=O)CC([*:2])C1=O]}$PEPTIDE1,CHEM1,7:R3-1:R1|PEPTIDE2,CHEM1,6:R3-1:R2$$$V2.0; N-terminus assumed)	2510 nM	2 nM	–	–	–	–	–
CC(C)C[C@H](NC(=O)[C@@H](Cc1ccccc1)NC(=O)[C@H](CSC1CC(=O)N(CCCCCCN2C(=O)CC(SC[C@H](N)C(=O)N[C@@H](Cc3ccc(O)cc3)C(=O)N[C@H](Cc3c[nH]c4ccccc34)C(=O)N[C@H](C(=O)N[C@H](Cc3c[nH]c4ccccc34)C(=O)N[C@H](Cc3c[nH]c4ccccc34)C(=O)N[C@@H](CCCNC(=N)N)C(N)=O)C(C)C)C2=O)C1=O)NC(=O)[C@H](Cc1ccccc1)NC(=O)CNC(=O)[C@@H]1C[C@@H](O)CN1C(=O)[C@@H]1CCCN1C(=O)[C@H](CCCNC(=N)N)NC(=O)[C@H](N)CCCNC(=N)N)C(=O)N[C@@H](CCCNC(=N)N)C(=O)O (stereo partly drawn) [CP-0411] (HELM PEPTIDE1{[dR].R.P.[Hyp].G.F.C.[dF].L.R}|PEPTIDE2{C.Y.[dW].V.[dW].[dW].R.[am]}|CHEM1{[O=C1CC([*:1])C(=O)N1CCCCCCN1C(=O)CC([*:2])C1=O]}$PEPTIDE1,CHEM1,7:R3-1:R1|PEPTIDE2,CHEM1,1:R3-1:R2$$$V2.0; N-terminus assumed)	3160 nM	31.6 nM	–	–	–	–	–
CC(C)C[C@H](NC(=O)[C@@H](Cc1ccccc1)NC(=O)[C@H](CSC1CC(=O)N(CCCCCCN2C(=O)CC(SC[C@H](NC(=O)[C@@H](NC(=O)[C@@H](Cc3c[nH]c4ccccc34)NC(=O)[C@H](Cc3ccc(O)cc3)NC(=O)[C@@H](N)CC(=O)O)C(C)C)C(=O)N[C@H](Cc3c[nH]c4ccccc34)C(=O)N[C@@H](CCCNC(=N)N)C(N)=O)C2=O)C1=O)NC(=O)[C@H](Cc1ccccc1)NC(=O)CNC(=O)[C@@H]1C[C@@H](O)CN1C(=O)[C@@H]1CCCN1C(=O)[C@H](CCCNC(=N)N)NC(=O)[C@H](N)CCCNC(=N)N)C(=O)N[C@@H](CCCNC(=N)N)C(=O)O (stereo partly drawn) [CP-0415] (HELM PEPTIDE1{[dR].R.P.[Hyp].G.F.C.[dF].L.R}|PEPTIDE2{D.Y.[dW].V.C.[dW].R.[am]}|CHEM1{[O=C1CC([*:1])C(=O)N1CCCCCCN1C(=O)CC([*:2])C1=O]}$PEPTIDE1,CHEM1,7:R3-1:R1|PEPTIDE2,CHEM1,5:R3-1:R2$$$V2.0; N-terminus assumed)	6310 nM	15.8 nM	–	–	–	–	–
CC(C)C[C@H](NC(=O)[C@@H](Cc1ccccc1)NC(=O)[C@H](CSC1CC(=O)N(CCCCCCN2C(=O)CC(SC[C@H](NC(=O)[C@H](Cc3ccccc3)NC(=O)CNC(=O)[C@@H]3C[C@@H](O)CN3C(=O)[C@@H]3CCCN3C(=O)[C@H](CCCNC(=N)N)NC(=O)[C@H](N)CCCNC(=N)N)C(=O)N[C@H](Cc3ccccc3)C(=O)N[C@@H](CC(C)C)C(=O)N[C@@H](CCCNC(=N)N)C(=O)O)C2=O)C1=O)NC(=O)[C@H](Cc1ccccc1)NC(=O)CNC(=O)[C@@H]1C[C@@H](O)CN1C(=O)[C@@H]1CCCN1C(=O)[C@H](CCCNC(=N)N)NC(=O)[C@H](N)CCCNC(=N)N)C(=O)N[C@@H](CCCNC(=N)N)C(=O)O (stereo partly drawn) [CP-0127] (HELM PEPTIDE1{[dR].R.P.[Hyp].G.F.C.[dF].L.R}|PEPTIDE2{[dR].R.P.[Hyp].G.F.C.[dF].L.R}|CHEM1{[O=C1CC([*:1])C(=O)N1CCCCCCN1C(=O)CC([*:2])C1=O]}$PEPTIDE1,CHEM1,7:R3-1:R1|PEPTIDE2,CHEM1,7:R3-1:R2$$$V2.0)	–	–	7.7 ± 0.2	Inactive	8.8 ± 0.3	3.16 nM	1.58 nM
CC(C)C[C@H](NC(=O)[C@@H](Cc1ccccc1)NC(=O)[C@H](CSC1CC(=O)N(CCCCCCN2C(=O)CC(SC[C@H](NC(=O)[C@@H](Cc3c[nH]c4ccccc34)NC(=O)[C@@H](Cc3c[nH]c4ccccc34)NC(=O)[C@@H](NC(=O)[C@@H](Cc3c[nH]c4ccccc34)NC(=O)[C@H](Cc3ccc(O)cc3)NC(=O)[C@@H](N)CC(=O)O)C(C)C)C(N)=O)C2=O)C1=O)NC(=O)[C@H](Cc1ccccc1)NC(=O)CNC(=O)[C@@H]1C[C@@H](O)CN1C(=O)[C@@H]1CCCN1C(=O)[C@H](CCCNC(=N)N)NC(=O)[C@H](N)CCCNC(=N)N)C(=O)N[C@@H](CCCNC(=N)N)C(=O)O (stereo partly drawn) [CP-0417] (HELM PEPTIDE1{[dR].R.P.[Hyp].G.F.C.[dF].L.R}|PEPTIDE2{D.Y.[dW].V.[dW].[dW].C.[am]}|CHEM1{[O=C1CC([*:1])C(=O)N1CCCCCCN1C(=O)CC([*:2])C1=O]}$PEPTIDE1,CHEM1,7:R3-1:R1|PEPTIDE2,CHEM1,7:R3-1:R2$$$V2.0)	2510 nM	10 nM	–	–	–	–	–
